Experimental data taken from publication PMC8125089, “Synthesis, Structure, Carbohydrate Enzyme Inhibition, Antioxidant Activity, In Silico Drug-Receptor Interactions and Drug-Like Profiling of the 5-Styryl-2-Aminochalcone Hybrids” (Molecules, 2021).
Read-outs that look alike come from different tables or passages of the source.

Legend:
[1] = biological target: yeast α-glucosidase from Saccharomyces cervisiae (Saccharomyces cerevisiae, UniProt P53341); test: biochemical
Method: All the tests and analyses were performed in triplicates following a modified published protocol described in our previous study. […] 2.5, 5, 10, 25 and 50 µM. α-Glucosidase solution (0.48 u/mL, 20 µL), phosphate buffer (100 mM, pH 6.8; 30 µL) and the test sample (20 µL) as well as the reference standard were added in the designated wells, and the reaction mixtures were incubated at 37 °C for 10 min. 2 mM p-nitrophenyl-α-D-glucopyranoside (20 µL) was added to each of the wells containing reaction mixture to initiate the reaction. The reaction was pre-incubated for 30 min at 37 °C. The reaction was stopped by the addition of 20 μL of a solution of sodium carbonate (200 mM) to each well. Five absorbance readings were recorded for each triplicate run at a wavelength of 400 nm using Varioskan flash microplate spectrophotometer (Thermo Scientific, Waltham, MA, USA). The average values obtained from the readings were used to determine the IC50 and standard deviation values. The values were calculated by the nonlinear regression analysis and expressed as the mean SD of three distinct experiments using Graph Pad Prism software.

α-amylase = test: α-Amylase inhibition assay (α-Amylase Inhibitor Screening Kit); type: biochemical; details: mean ± SD of three independent experiments
Method: The α-amylase assay was performed in triplicate using a 96-well plate following the procedure by the manufacturer as outlined in the α-Amylase Inhibitor Screening Kit (Catalog No. K482; Bio Vision). […] For inhibitor control (10 µL of α-amylase inhibitor and 40 µL of assay buffer were added to 3 wells), enzyme control (50 µL of assay buffer was added to three wells) and 50 µL of the test compounds were added into the remaining wells. A solution of α-amylase enzyme (50 µL) prepared by adding 490 µL of assay buffer to 10 µL of α-amylase enzyme was added to each of the wells containing the reaction mixture to initiate the reaction. The plate was incubated for 10 min at room temperature in the dark. Five different absorbance readings were recorded for each triplicate run at a wavelength of 405 nm using Varioskan flash microplate spectrophotometer (Thermo Scientific, Waltham, MA, USA). The IC50 and SD values were calculated using graph pad prism.

[2] = DPPH radical scavenging assay; details: free radical scavenging; mean ± SD of three independent experiments
Excerpt: (§1) Reduced or lack of antioxidant activity of these compounds was attributed to the presence of intramolecular N-H···O hydrogen bond between amino and kenone group of the 2-aminochalcones and their sulfanamido derivatives which is envisaged to deactivate the unsaturated moiety. […] A combination of the styryl and the electrophilic α,β-unsaturated carbonyl arms on the same molecular framework encouraged us to evaluate the test compounds for antioxidant properties through the DPPH and NO radical scavenging assays. […] Compound 2a has potential to inhibit both α-glucosidase and α-amylase activities, and to reduce oxidative stress. […] The observed free radical scavenging activities of these molecular hybrids is presumably due to the presence of styryl arm on the intramolecularly hydrogen bonded 2-aminochalcone scaffold.
The antioxidant activities of the test compounds against ascorbic acid (Sigma Aldrich, Saint Louis, Missouri, USA) as a positive control were evaluated using 2,2-diphenyl-1-picrylhydrazyl (DPPH) radical scavenging assay developed by Zhu et al. as described in our previous study. Triplicate solutions (20 µL) of the test compounds and ascorbic acid in DMSO (final concentrations: 5, 10, 25, 50, and 100 µM) were added into each designated well of a 96-well plate. A solution of 0.20 mM DPPH (20 µL) in methanol was added to each well, and the 96-well plate was wrapped with aluminum foil and incubated in the dark for 45 min. Five absorbance readings were recorded at 512 nm using Varioskan flash microplate spectrophotometer reader. The average values obtained from the absorbance readings were used to determine the IC50 and standard deviation values.

[3] = NO free radical scavenging assay (sodium nitroprusside, Griess reaction); details: mean ± SD of three independent experiments
Excerpt: as §1
Nitric oxide was generated from sodium nitroprusside and measured by Griess’ reaction following the literature method. The experiment was done in triplicate with ascorbic acid (vitamin C) used as a positive control for the assay. In a 96 well plate, 5 μL of the test compounds (0.1, 0.5, 1.0, 5.0 and 10.0 μM in methanol) or the positive control were mixed with 5 μL of 10 mM sodium nitroprusside prepared in phosphate buffered saline (pH = 7.4) and allowed to incubate at room temperature for 2.5 h. Afterwards, 30 μL of the Griess reagent (a mixture of 0.2% N-(1-naphthyl)ethylenediamine dihydrochloride and 2% sulfanilamide in […]) was added to each well and the mixtures were and allowed to stand at room temperature for 30 min. Five absorbance readings were recorded at 546 nm using Varioskan flash microplate spectrophotometer reader.

α-glucosidase = α-glucosidase (Saccharomyces cerevisiae, UniProt P53341); test: Enzyme kinetic studies (Lineweaver-Burk and Dixon plots); type: biochemical; details: for Ki / mode of inhibition: α-glucosidase; for Ki: PNPG substrate, read-out: Ki (Dixon plot); for mode of inhibition: Lineweaver-Burk and Dixon plots
Sequence of α-glucosidase (P53341 whole entry): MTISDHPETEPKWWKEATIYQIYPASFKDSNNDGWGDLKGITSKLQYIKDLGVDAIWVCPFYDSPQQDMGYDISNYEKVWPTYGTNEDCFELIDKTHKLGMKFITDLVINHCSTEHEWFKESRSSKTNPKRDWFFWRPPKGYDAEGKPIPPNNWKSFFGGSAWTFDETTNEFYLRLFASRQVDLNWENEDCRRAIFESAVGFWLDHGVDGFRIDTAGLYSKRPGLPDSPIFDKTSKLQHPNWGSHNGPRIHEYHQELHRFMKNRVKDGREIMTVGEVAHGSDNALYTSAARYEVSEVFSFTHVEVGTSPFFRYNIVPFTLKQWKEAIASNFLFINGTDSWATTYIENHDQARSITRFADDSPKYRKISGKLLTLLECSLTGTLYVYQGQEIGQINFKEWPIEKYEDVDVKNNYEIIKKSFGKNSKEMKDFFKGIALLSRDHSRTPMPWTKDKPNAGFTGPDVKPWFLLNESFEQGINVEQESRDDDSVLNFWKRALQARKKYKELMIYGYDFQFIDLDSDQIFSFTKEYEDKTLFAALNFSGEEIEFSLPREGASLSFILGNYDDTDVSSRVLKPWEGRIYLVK
Method: The Lineweaver-Burk plot of 1/V versus 1/[S] in the presence of different concentrations of compound 2a in the case of α-glucosidase gave a series of straight lines that intersect on the x-axis (Figure 3a). […] The compound probably binds to the active site and other allosteric sites on the enzyme.
Enzyme kinetics studies were performed on compounds 2a and 3e with increasing inhibitor and substrate concentrations. In the experimental procedure, inhibitors concentrations of 0.1, 0.5, 1, 2.5 µM, and final substrate concentration were 0.1, 0.5, 1 and 5 mM were used. 5 μL of the inhibitor and 2 μL of the enzyme (α-glucosidase) were added to each well of the 96-well plate. The reaction was incubated for 20 min at room temperature. 18 μL of the substrate, PNPG (4-nitrophenyl α-D-glucopyranoside) was then added and absorbance readings recorded after every 2 min at wavelength of 400 nm using a Varioskan flash microplate spectrophotometer reader. Lineweaver-Burk plot (the inverse of velocity (1/v) against the inverse of the substrate concentration (1/[S]) were used to determining the type of inhibition, while the inhibitor constant was obtained from the Dixon plot (the inverse of velocity (1/v) against concentration of inhibitor at each substrate concentration)

Vero cells = test: MTT cytotoxicity assay on Vero cells; type: cell-based; details: monkey, 24 h treatment
Method: (§2) Metabolic diseases such as diabetes require a stable long-term therapy accompanied by well tolerated and low toxicity, and this encouraged us to evaluate the safety profile of 2a and 3e as potential antidiabetic agents at least in vitro. The compounds were evaluated for cytotoxicity against the normal monkey kidney cells (Vero cells) and the adenocarcinomic human epithelial (A549) cell line using the 3-(4,5-dimethylthiazol-2-yl)-2, 5-diphenyltetrazolium (MTT) assay.
The cytotoxicity activity of compounds 2a and 3e was evaluated against doxorubicin (positive control) using the 3-(4,5-dimethylthiazol-2-yl)-2,5-diphenyltetrazolium bromide (MTT) assay following a modification of a literature method by Mosmann. The Vero and A549 cells were maintained in Dulbecco′s modified Eagle′s medium (DMEM; Gibco) supplemented with 10% Fetal bovine serum (FBS) and 1% penicillin/streptomycin in culture flasks and incubated at 37 °C in 5% CO2. When the cells reached 85% confluency, they were detached using 2% trypsin. Cell count was performed using a handheld automated cell counter (Scapter 3.0™, Merck). The cells were seeded at 1 × 10^5 cells/well and incubated overnight to allow cell attachment. […] Five absorbance readings were recorded at 517 nm using Varioskan flash microplate spectrophotometer reader.

A549 cells = test: MTT cytotoxicity assay on A549 cells; type: cell-based, human; details: 24 h treatment; for IC50 at 24 h: human, A549 cells
Method: as §2
The cytotoxicity activity of compounds 2a and 3e was evaluated against doxorubicin (positive control) using the 3-(4,5-dimethylthiazol-2-yl)-2,5-diphenyltetrazolium bromide (MTT) assay following a modification of a literature method by Mosmann. The Vero and A549 cells were maintained in Dulbecco′s modified Eagle′s medium (DMEM; Gibco) supplemented with 10% Fetal bovine serum (FBS) and 1% penicillin/streptomycin in culture flasks and incubated at 37 °C in 5% CO2. When the cells reached 85% confluency, they were detached using 2% trypsin. Cell count was performed using a handheld automated cell counter (Scapter 3.0™, Merck). The cells were seeded at 1 × 10^5 cells/well and incubated overnight to allow cell attachment. After 24 h, the cells were treated with different concentrations (0, 2.5, 5, 10, 25, 50, 100 µM) of the test compounds and the reference stand. The cells were incubated for 24 h followed by treatment with 20 µL of MTT solution (5 mg/mL). After 4 h incubation period, DMSO (100 µL) was added to each well to dissolve the formazan crystals. Five absorbance readings were recorded at 517 nm using Varioskan flash microplate spectrophotometer reader.

[4] = mean ± SD of three independent experiments, pH 6.8, 37 °C, read-out: IC50 (SD) α-Glucosidase

Sequence of yeast α-glucosidase from Saccharomyces cervisiae (P53341 whole entry): as above

| Structure (SMILES) | IC50 [1] [µM] | IC50 (α-amylase) [µM] | IC50 [2] [µM] | IC50 [3] [µM] | melting point [°C] | IC50 [1, 4] [µM] | velocity of the reaction (Vmax) (α-glucosidase; α-glucosidase in the presence of increasing inhibitor concentrations, Lineweaver-Burk plot) [µM/min] | Ki (α-glucosidase) [µM] | mode of inhibition (α-glucosidase) | IC50 at 24 h (Vero cells) [µM] | IC50 at 24 h (A549 cells) [µM] | IC50 (A549 cells) [µM] |
| --- | --- | --- | --- | --- | --- | --- | --- | --- | --- | --- | --- | --- |
| CC(=O)c1cc(/C=C/c2ccc(Cl)cc2)ccc1N [Compound 2c, (E)-1-(2-Amino-5-(4-chlorostyryl)phenyl)ethan-1-one] | 15.9 ± 0.34 | 5.8 ± 0.51 | 10.4 ± 0.15 | 11.6 ± 0.43 | 137 to 138 |  |  |  |  |  |  |  |
| CC(=O)c1cc(/C=C/c2ccc(F)cc2)ccc1N [Compound 2b, (E)-1-(2-Amino-5-(4-fluorostyryl)phenyl)ethan-1-one] | 12.7 ± 0.16 | 19.3 ± 0.42 | 15.8 ± 0.21 | 7.2 ± 0.4 | 149 to 150 |  |  |  |  |  |  |  |
| Nc1ccc(/C=C/c2ccc(Cl)cc2)cc1C(=O)/C=C/c1ccc(F)cc1 [Compound 3g, (E)-1-(2-Amino-5-((E)-4-chlorostyryl)phenyl)-3-(4-fluorophenyl)prop-2-en-1-one] | 19.2 ± 0.47 | 1.7 ± 0.25 | 5.2 ± 0.53 | 15.1 ± 0.19 | 197 to 198 |  |  |  |  |  |  |  |
| COc1ccc(/C=C/c2ccc(N)c(C(C)=O)c2)cc1 [Compound 2d, (E)-1-(2-Amino-5-(4-methoxystyryl)phenyl)ethan-1-one] | 30.7 ± 0.42 | 9 ± 0.31 | 9.3 ± 0.23 | 25.9 ± 0.61 | 139 to 140 |  |  |  |  |  |  |  |
| Nc1ccc(/C=C/c2ccc(F)cc2)cc1C(=O)/C=C/c1cccc(F)c1 [Compound 3b, (E)-1-(2-Amino-5-((E)-4-fluorostyryl)phenyl)-3-(3-fluorophenyl)prop-2-en-1-one] |  | 15.6 ± 0.6 | 6.6 ± 0.33 | 5.3 ± 0.34 | 175 to 177 | 6.1 ± 0.24 |  |  |  |  |  |  |
| Nc1ccc(/C=C/c2ccc(Cl)cc2)cc1C(=O)/C=C/c1cccc(F)c1 [Compound 3c, (E)-1-(2-Amino-5-((E)-4-Chlorostyryl)phenyl)-3-(3-fluorophenyl)prop-2-en-1-one] | 12.6 ± 0.31 | 2.4 ± 0.1 | 15.3 ± 0.1 | 10.6 ± 0.3 | 187 to 188 |  |  |  |  |  |  |  |
| COc1ccc(/C=C/c2ccc(N)c(C(=O)/C=C/c3cccc(F)c3)c2)cc1 [Compound 3d, (E)-1-(2-Amino-5-((E)-4-methoxystyryl)phenyl)-3-(3-fluorophenyl)prop-2-en-1-one] |  | 7 ± 0.45 | 3.9 ± 0.21 | 7.9 ± 0.28 |  | 9.4 ± 0.5 |  |  |  |  |  |  |
| Nc1ccc(/C=C/c2ccccc2)cc1C(=O)/C=C/c1ccc(F)cc1 [Compound 3e, (E)-1-(2-Amino-5-((E)-styryl)phenyl)-3-(4-fluorophenyl)prop-2-en-1-one] |  | 1.6 ± 0.52 | 4.2 ± 0.43 | 20.5 ± 0.46 | 161 to 162 | 5.1 ± 0.61 | 0.01 ± 0.002 | 1.48 ± 0.05 | mixed mode of inhibition | 220 ± 0.57 | 204 ± 0.55 |  |
| O=C1O[C@H]([C@@H](O)CO)C(O)=C1O [Ascorbic acid, reference compound] |  |  | 4.2 ± 0.27 | 6.14 ± 0.21 |  |  |  |  |  |  |  |  |
| CC(=O)c1cc(/C=C/c2ccccc2)ccc1N [Compound 2a, (E)-1-(2-Amino-5-styrylphenyl)ethan-1-one] |  | 2.3 ± 0.2 | 7.1 ± 0.32 | 8.3 ± 0.22 | 119 to 120 | 5.4 ± 0.1 |  | 0.3 ± 0.04 | non-competitive mode of inhibition | 164.6 ± 0.59 | 65.7 ± 0.14 |  |
| COc1ccc(/C=C/c2ccc(N)c(C(=O)/C=C/c3ccc(F)cc3)c2)cc1 [Compound 3h, (E)-1-(2-Amino-5-((E)-4-methoxystyryl)phenyl)-3-(4-fluorophenyl)prop-2-en-1-one] | 10.5 ± 0.18 | 7.6 ± 0.2 | 25.8 ± 0.43 | 20.2 ± 0.23 | 153 to 154 |  |  |  |  |  |  |  |
| Nc1ccc(/C=C/c2ccccc2)cc1C(=O)/C=C/c1cccc(F)c1 [Compound 3a, (E)-1-(2-Amino-5-((E)-styryl)phenyl)-3-(3-fluorophenyl)prop-2-en-1-one] | 17.8 ± 0.32 | 10.7 ± 0.21 | 21.6 ± 0.32 | 18.9 ± 0.54 | 129 to 130 |  |  |  |  |  |  |  |
| Nc1ccc(/C=C/c2ccc(F)cc2)cc1C(=O)/C=C/c1ccc(F)cc1 [Compound 3f, (E)-1-(2-Amino-5-((E)-4-fluorostyryl)phenyl)-3-(4-fluorophenyl)prop-2-en-1-one] |  | 9.5 ± 0.41 | 18.5 ± 0.37 | 8.8 ± 0.33 |  | 6.9 ± 0.37 |  |  |  |  |  |  |
| COc1cccc2c1C(=O)c1c(O)c3c(c(O)c1C2=O)C[C@@](O)(C(=O)CO)C[C@@H]3O[C@H]1C[C@H](N)[C@H](O)[C@H](C)O1 [Doxorubicin, reference compound] |  |  |  |  |  |  |  |  |  |  |  | 1.14 ± 0.23 |
